Data set [1] in a line: Phase Ib drug–drug interaction study: safety and tolerability (adverse events). Type of data set: in vivo, human. The text has this:
This was a phase Ib, open-label, four-arm, parallel design, multicenter, multiple-dose study in healthy female subjects of non-childbearing potential. Subjects were randomly assigned to 1 of 4 treatment arms in a 1:1:1:1 ratio with stratification according to AAG concentration [low (0.5–0.73 g/L), medium (0.74–0.96 g/L), or high (0.97–1.2 g/L)].

For data set [2] the following is noted: vismodegib; ANOVA, back-transformed; day 7 (day 11 in Arm B).
For data set [3] the following is noted: unbound vismodegib; geometric mean (CV %); 2, 6 and 12 h postdose on day 7 (day 11 in Arm B); vismodegib 150 mg QD.
Description: PK parameters were calculated using noncompartmental methods with WinNonlin (Pharsight Corporation, Mountain View, CA; Version 5.2); the PK analysis used actual times as recorded on the case report form.
The conditions of data set [4]: cited from earlier work.
The test system of the next data set is Caco-2 cells. Particulars: cited from earlier work.
Another data set deals with human hepatocytes. Also on record: method as in PMID 19845436. Particulars: 3-h incubation with human hepatocytes; cited from earlier work.
Details of data set [5]: method as in PMID 19845436. Particulars: cited from earlier work.
The nature of a further data set: clinical. As to conditions: female, human, plasma, po, 150 mg.
For data set [6] the following is noted: cited from earlier work. The source holds these as a separate data set.
A further data set deals with P-glycoprotein (P-gp). As to conditions: MDCK cells overexpressing P-gp; cited from earlier work.
Another data set has as its system CYP2C9 and CYP3A4. As to conditions: cited from earlier work.
For data set [7] the following is noted: cited from earlier work. This is another data set of the same source.
Setting [8] is: number of subjects (percent), safety population.

The structures appear in SMILES notation. “Also recorded” adds a separate entry of the source. Where two headings read alike, the source gives them in different places.

`CS(=O)(=O)c1ccc(C(=O)Nc2ccc(Cl)c(-c3ccccn3)c2)c(Cl)c1` [Vismodegib, 2-chloro-N-(4-chloro-3-(pyridin-2-yl)phenyl)-4-(methylsulfonyl) benzamide]: in data set [1] (across the study), the “Most frequent AEs related to vismodegib: constipation” value is 10.5%, the “Most frequent AEs related to vismodegib: diarrhea” value is reported as 8.0%, the “Most frequent AEs related to vismodegib: headache” value turned out to be 10.5% and the “Most frequent AEs related to vismodegib: nausea” value is 9.3%. In data set [1] (setting [8]), the “Treatment-emergent AE: Abdominal distention” value is 1 (4.5), the “Treatment-emergent AE: Abdominal pain” value is given as 1 (4.5), the “Treatment-emergent AE: Constipation” value is 4 (18.2) and the “Treatment-emergent AE: Diarrhea” value is given as 1 (4.5). Further, in data set [1] (setting [8]), the “Treatment-emergent AE: Dizziness” value is 2 (9.1), the “Treatment-emergent AE: Flatulence” value is 1 (4.5), the “Treatment-emergent AE: Headache” value is 4 (18.2) and the “Treatment-emergent AE: Nausea” value is 2 (9.1). For the same compound, in data set [1] (setting [8]), the “Treatment-emergent AE: Pruritus” value was found to be 0 and the “Treatment-emergent AE: Rash” value amounted to 0. Further, in data set [1] (of the 127 treatment-emergent AEs), the “Number of treatment-emergent AEs considered related to vismodegib” value came out at 92. For the same compound, in data set [2], the “Geometric LS mean of AUC0–24h at steady state” value turned out to be 402 µM·h. In addition, in [3], the “Css,ave,u (average unbound plasma concentration at steady state)” value is on record as 0.150 (50.2) µmol/L. The “Decrease in solubility from pH 2 to 7” value in data set [4] is 10,000 fold. For the same compound, the Permeability result with Caco-2 cells is reported as “high permeability”. Further, the Parent remaining in the data set with human hepatocytes was 96%. Further, in data set [5], the “Predicted preclinical efficacious levels (unbound concentration range required for efficacy)” value is 0.042 to 0.068 µM. Also, in the data set “clinical”, the AUC(0-t) (usually exposure summed from dosing to a finite time, without extrapolation to infinity) came to 140 µM·h; the peak level (Cmax) was 7 µM; the Tmax (commonly the time from dosing to the highest level) was found to be 6 h. In data set [6], the “Absolute bioavailability at steady state” value is recorded as “less than 10%”. Moreover, in data set [6] (daily dose increased from 150 to 270 or 540 mg), the “Change in steady-state plasma concentrations with dose” value is “no increase”. In data set [6] (healthy subjects), the “Increase in total clearance with multiple dosing” value is recorded as 81% and the “Oral steady-state AUC0–24h after multiple dosing compared with AUC from zero to infinity after a single dose” value is on record as “approximately eightfold lower”. The “PK variability explained by AAG levels” value in data set [6] (patients) is reported as more than 70%. Besides, the “PK variability explained by AAG levels” value in [6] (ref data on file) is given as more than 70%. For the same compound, the Terminal elimination half-life in data set [6] (single dose) is 288 h. Further, in the data set with P-glycoprotein (P-gp), the P-gp substrate status result is recorded as “weak substrate of P-gp; also recorded: P-glycoprotein (P-gp) substrate”. Further, the Metabolizing enzymes entry in the data set on CYP2C9 and CYP3A4 was “primarily metabolized by CYP2C9 and CYP3A4”.
For the compound `COC(=O)N[C@H](C(=O)N[C@@H](Cc1ccccc1)[C@@H](O)CN(Cc1ccc(-c2ccccn2)cc1)NC(=O)[C@@H](NC(=O)OC)C(C)(C)C)C(C)(C)C` [atazanavir], in data set [7], the “Change in bioavailability on co-administration of the PPI lansoprazole” value is recorded as “large reduction”.
For the compound `CC(=O)N1CCN(c2ccc(OCC3COC(Cn4ccnc4)(c4ccc(Cl)cc4Cl)O3)cc2)CC1` (centres unmarked) [ketoconazole], the “Impairment of absorption by acid-reducing agents” value in data set [7] is reported as “more than 90%”.

(Values after paper PMC4921109 (Cancer Chemotherapy and Pharmacology, 2016).)
